Experimental data reported in patent US20220040072A1, “Reduction of Pathogenic Bacteria Using Arginine” (Colgate-Palmolive Company, priority 2018, published 2022).

Columns and labels:
[1] = tested on: S. sanguinis; experiment: Single species growth in media supplemented with arginine (optical density 630 nm); assay type: cell-based, Streptococcus sanguinis; settings: 10-25 micromol/ml arginine; vs reference control set to 1; OD 630 nm at 24 and 48 hours
Protocol: (§1) To assess the impact of the amino acid arginine on beneficial oral bacteria and on pathogenic oral bacteria, representative bacterial species were cultured in media supplemented with 5, 10, 20, and 25 micromol/ml of arginine using a 96-well polystyrene microtiter plate. The bacterial cultures were incubated under anaerobic conditions or an environment containing 5% carbon dioxide, monitoring growth at 24 and 48 hours through optical density at a wavelength of 630 nm.
(§2) *Single species growth and biofilm formation stimulated by arginine in comparison to the reference control which was set to a value of 1 (p<0.05). Cut-off values were set to a factor of 1.2 for growth (upper 5% of all data), and 1.45 for biofilm formation (upper 20% of all data). Aa: Aggregatibacter actinomycetemcomitans, Fn: Fusobacterium nucleatum, Ssob: Streptococcus sobrinus, Avisc: Actinomyces viscosus, Ssal: Streptococcus salivarius, Smitis: Streptococcus mitis, Ssang: Streptococcus sanguinis, Sgord: Streptococcus gordonii, Soralis: Streptococcus oralis.

[2] = tested on: A. viscosus; experiment: as above; assay type: cell-based, Actinomyces viscosus; settings: 10-25 micromol/ml arginine; vs reference control set to 1; OD 630 nm at 24 and 48 hours
Protocol: as §1, §2

[3] = tested on: S. gordonii; experiment: as above; assay type: cell-based, Streptococcus gordonii; settings: 10-25 micromol/ml arginine; vs reference control set to 1; OD 630 nm at 24 and 48 hours
Protocol: as §1, §2

[4] = tested on: pathogenic and beneficial microbes; experiment: Total biofilm growth in the presence of arginine (crystal violet staining); assay type: cell-based; settings: vs no substrate control, species other than A. actinomycetemcomitans
Description: as §2
(§3) Total biofilm growth in the presence of arginine was assessed through crystal violet staining. An increase of 1.2-fold or greater over the no substrate control was considered significant as calculated using a Student's t-test (p<0.05).

[5] = tested on: pathogenic bacteria; experiment: Single species growth in media supplemented with arginine (optical density 630 nm); assay type: cell-based; settings: 5, 10, 20, 25 micromol/ml arginine; OD 630 nm at 24 and 48 hours
Protocol: as §1, §2

[6] = tested on: Fusobacterium nucieatum; experiment: Dual species competitive biofilm assay (qPCR); assay type: cell-based, Fusobacterium nucleatum; settings: 25 μmol/ml arginine, negative value = reduction of pathogen
Protocol: (§4) The impact of arginine in a dual-species biofilm was assessed by co-culturing one beneficial bacterial species with on pathogenic microbe in media containing 25 micromol/ml of arginine. The total beneficial-to-pathogen load in the results biofilms were determined via qPCR using DNA probes.
(§5) Using a competitive biofilm assay, the role of arginine as a selective nutrient was assessed using a dual species biofilm model (Table 2).

[7] = tested on: beneficial bacteria; experiment: Dual species competitive biofilm assay (qPCR); assay type: cell-based; settings: 25 micromol/ml arginine; co-cultured with one pathogenic microbe
Protocol: as §4, §5

[8] = tested on: Porphyromonas gingivalis; experiment: Dual species competitive biofilm assay (qPCR); assay type: cell-based; settings: 25 μmol/ml arginine, negative value = reduction of pathogen
Protocol: as §4, §5

[9] = tested on: Prevotella intermedia; experiment: Dual species competitive biofilm assay (qPCR); assay type: cell-based; settings: 25 μmol/ml arginine, negative value = reduction of pathogen
Protocol: as §4, §5

[10] = tested on: Streptococcus sobrinus; experiment: Dual species competitive biofilm assay (qPCR); assay type: cell-based; settings: 25 μmol/ml arginine, negative value = reduction of pathogen
Protocol: as §4, §5

[11] = tested on: Aggregatibacter actinomycetemcomitans; experiment: Dual species competitive biofilm assay (qPCR); assay type: cell-based; settings: 25 μmol/ml arginine, negative value = reduction of pathogen
Protocol: as §4, §5

[12] = tested on: Streptococcus mutans; experiment: Dual species competitive biofilm assay (qPCR); assay type: cell-based; settings: 25 μmol/ml arginine, negative value = reduction of pathogen
Protocol: as §4, §5

[13] = tested on: A. actinomycetemcomitans biofilms; experiment: Total biofilm growth in the presence of arginine (crystal violet staining); assay type: cell-based, Aggregatibacter actinomycetemcomitans; settings: vs no substrate control
Description: as §2, §3

[14] = co-cultured with Actinomyces viscosus
[15] = co-cultured with Streptoccoccus salivarius
[16] = co-cultured with Streptococcus gordonii
[17] = co-cultured with Streptococcus mitis
[18] = co-cultured with Streptococcus oralis
[19] = co-cultured with Streptococcus sanguinis

With `N=C(N)NCCC[C@H](N)C(=O)O` [arginine] the “fold increase of growth” value [1] was 1.2-1.3 fold, the “fold increase of growth” value [2] was 1.2-1.3 fold and the “fold increase of growth” value [3] was 1.2-1.3 fold. The biofilm formation [4] was “no significant increase”, the “increase of pathogenic bacteria growth” value [5] was “no significant increase” and the “Proportional reduction of pathogenic species in a dual species biofilm post-Arginine treatment” value (“Proportional reduction” for short) [6, 14] was 13.35%. For the same compound, the “Proportional reduction” value [6, 15] was −28.32%, the “Proportional reduction” value [6, 16] was 474.12% and the “Proportional reduction” value [6, 17] was 209.31%. The “Proportional reduction” value [6, 18] was 101.73%, the “Proportional reduction” value [6, 19] was 112.11% and the “growth of beneficial bacteria in arginine-cultured dual species biofilms” value [7] was “increase”. For the same compound, the “Proportional reduction” value [8, 14] was −97.78%, the “Proportional reduction” value [8, 15] was 90.75% and the “Proportional reduction” value [8, 16] was −52.94%. For the same compound, the “Proportional reduction” value [8, 17] was −96.62%, the “Proportional reduction” value [8, 18] was −79.23% and the “Proportional reduction” value [8, 19] was −85.49%. For the same compound, the “Proportional reduction” value [9, 14] was −99.99%, the “Proportional reduction” value [9, 15] was 81.56% and the “Proportional reduction” value [9, 16] was −98.29%. The “Proportional reduction” value [9, 17] was −52.64%, the “Proportional reduction” value [9, 18] was −73.78% and the “Proportional reduction” value [9, 19] was −99.35%. The “Proportional reduction” value [10, 14] was −7.87%, the “Proportional reduction” value [10, 15] was −1.33% and the “Proportional reduction” value [10, 16] was −50.33%. For the same compound, the “Proportional reduction” value [10, 17] was 49.29%, the “Proportional reduction” value [10, 18] was −15.77% and the “Proportional reduction” value [10, 19] was −40.73%. The “Proportional reduction” value [11, 14] was −25.66%, the “Proportional reduction” value [11, 15] was −35.38% and the “Proportional reduction” value [11, 16] was 100.61%. The “Proportional reduction” value [11, 17] was 73.94%, the “Proportional reduction” value [11, 18] was 268.65% and the “Proportional reduction” value [11, 19] was 233.40%. The “Proportional reduction” value [12, 14] was −23.93%, the “Proportional reduction” value [12, 15] was −15.19% and the “Proportional reduction” value [12, 16] was −87.64%. The “Proportional reduction” value [12, 17] was −0.72%, the “Proportional reduction” value [12, 18] was −3.47% and the “Proportional reduction” value [12, 19] was −19.30%. For the same compound, the biofilm formation [13] was “increase”.
